Where a name gives a salt, the structure may show the parent alone.
How the values were obtained:
rat TAAR1 = rat TAAR1 (Rattus norvegicus (Rat), UniProt Q923Y9); assay: Radioligand binding assay on rat TAAR1; conditions: for Ki: read-out: Ki (μM) rat, rat TAAR1, membranes of HEK-293 cells, radioligand displacement;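 for all read-outs here: stably transfected HEK293 cell membranes with a tritiated radioligand, 1 h incubation at 4 °C, nonspecific binding taken as binding with 10 µM unlabeled ligand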
rat TAAR1, sequence (Q923Y9 whole entry): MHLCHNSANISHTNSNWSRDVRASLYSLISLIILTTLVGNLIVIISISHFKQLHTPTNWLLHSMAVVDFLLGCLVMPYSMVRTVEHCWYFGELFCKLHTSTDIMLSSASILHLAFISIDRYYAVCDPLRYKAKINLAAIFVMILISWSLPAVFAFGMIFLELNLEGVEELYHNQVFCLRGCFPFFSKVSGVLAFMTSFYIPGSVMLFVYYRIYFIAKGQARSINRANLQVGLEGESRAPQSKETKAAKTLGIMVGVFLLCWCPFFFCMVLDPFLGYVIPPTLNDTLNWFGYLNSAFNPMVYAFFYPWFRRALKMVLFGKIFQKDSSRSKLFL
Protocol: (§1) For the generation of stably transfected cell lines HEK293 cells were transfected with the pIRESneo2 expression plasmids containing the TAAR coding sequences (described above) with Lipofectamine 2000 (Invitrogen) according to the instructions of the manufacturer, and 24 hrs post transfection the culture medium was supplemented with 1 mg/ml G418 (Sigma, Buchs, Switzerland). […] Radioligand Binding Assay on Rat TAAR1 Membrane Preparation and Radioligand Binding. […] Cells were released from culture flasks using trypsin/EDTA, harvested, washed twice with ice-cold PBS (without Ca^2+ and Mg^2+), pelleted at 1,000 rpm for 5 min at 4° C., frozen and stored at −80° C. Frozen pellets were suspended in 20 ml HEPES-NaOH (20 mM, pH 7.4) containing 10 mM EDTA and homogenized with a Polytron (PT 6000, Kinematica) at 14,000 rpm for 20 s. The homogenate was centrifuged at 48,000×g for 30 min at 4° C. Subsequently, the supernatant was removed and discarded, and the pellet resuspended in 20 ml HEPES-NaOH (20 mM, pH 7.4) containing 0.1 mM EDTA using the Polytron (20 s at 14,000 rpm). This procedure was repeated and the final pellet resuspended in HEPES-NaOH containing 0.1 mM EDTA and homogenized using the Polytron. Typically, aliquots of 2 ml membrane portions were stored at −80° C. With each new membrane batch the dissociation constant (Kd) was determined via a saturation curve. […] Nonspecific binding was defined as the amount of ^3[H]-(S)-4-[(ethyl-phenyl-amino)-methyl]-4,5-dihydro-oxazol-2-ylamine bound in the presence of 10 μM unlabeled ligand. All compounds were tested at a broad range of concentrations (10 pM to 10 μM) in duplicates. […] The 96 deep well plates were incubated for 1 hr at 4° C. Incubations were terminated by rapid filtration through Unifilter-96 plates (Packard Instrument Company) and glass filters GF/C (Perkin Elmer) presoaked for 1 hr in polyethylenimine (0.3%) and washed 3 times with 1 ml of cold binding buffer. After addition of 45 μl of Microscint 40 (PerkinElmer) the Unifilter-96 plate was sealed and after 1 hr the radioactivity counted using a TopCount Microplate Scintillation Counter (Packard Instrument Company). Radioligand Binding Assay on Mouse TAAR1 Membrane Preparation and Radioligand Binding. […] Cells were released from culture flasks using trypsin/EDTA, harvested, washed twice with ice-cold PBS (without Ca^2+ and Mg^2+), pelleted at 1,000 rpm for 5 min at 4° C., frozen and stored at −80° C. Frozen pellets were suspended in 20 ml HEPES-NaOH (20 mM, pH 7.4) containing 10 mM EDTA and homogenized with a Polytron (PT 6000, Kinematica) at 14,000 rpm for 20 s. The homogenate was centrifuged at 48,000×g for 30 min at 4° C. Subsequently, the supernatant was removed and discarded, and the pellet resuspended in 20 ml HEPES-NaOH (20 mM, pH 7.4) containing 0.1 mM EDTA using the Polytron (20 s at 14,000 rpm). This procedure was repeated and the final pellet resuspended in HEPES-NaOH containing 0.1 mM EDTA and homogenized using the Polytron. Typically, aliquots of 2 ml membrane portions were stored at −80° C. With each new membrane batch the dissociation constant (Kd) was determined via a saturation curve.

mouse TAAR1 = mouse TAAR1 (Mus musculus (Mouse), UniProt Q923Y8); assay: Radioligand binding assay on mouse TAAR1; conditions: for Ki: read-out: Ki (μM) mouse, mouse TAAR1, membranes of HEK-293 cells, radioligand displacement
mouse TAAR1, sequence (Q923Y8 whole entry): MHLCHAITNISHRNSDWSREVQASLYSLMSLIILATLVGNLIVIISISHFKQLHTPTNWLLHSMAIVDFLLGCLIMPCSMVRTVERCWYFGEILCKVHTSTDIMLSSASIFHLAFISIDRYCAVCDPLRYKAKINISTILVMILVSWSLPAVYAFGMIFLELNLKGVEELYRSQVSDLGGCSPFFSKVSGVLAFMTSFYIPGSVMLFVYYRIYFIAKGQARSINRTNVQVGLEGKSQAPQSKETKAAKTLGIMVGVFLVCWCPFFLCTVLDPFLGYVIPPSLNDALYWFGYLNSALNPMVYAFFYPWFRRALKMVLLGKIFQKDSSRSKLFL
Protocol: as §1

Ki (rat TAAR1) [µM]	Ki (mouse TAAR1) [µM]	Kd (rat TAAR1; read-out: dissociation constant (Kd) of the radioligand, rat TAAR1 membranes, saturation curve) [nM]	Kd (mouse TAAR1; read-out: dissociation constant (Kd) of the radioligand, mouse TAAR1 membranes, saturation curve) [nM]	Compound
0.0002	0.0008			Cc1nn(-c2ccc(OC(F)F)cc2)cc1C(=O)Nc1ccc([C@H]2CNCCO2)cc1 [Example 32, (S)-1-(4-(difluoromethoxy)phenyl)-3-methyl-N-(4-(morpholin-2-yl)phenyl)-1H-pyrazole-4-carboxamide hydrochloride]
0.0068	0.0032			O=C(Nc1ccc([C@H]2CNCCO2)cc1)c1cnn(-c2cncc(Cl)n2)c1 [Example 33, (S)-1-(6-chloropyrazin-2-yl)-N-(4-(morpholin-2-yl)phenyl)-1H-pyrazole-4-carboxamide hydrochloride]
0.0035	0.0054			O=C(Nc1ccc([C@H]2CNCCO2)cc1)c1cnn(-c2ccnc(C(F)(F)F)n2)c1 [Example 34, (S)—N-(4-(morpholin-2-yl)phenyl)-1-(2-(trifluoromethyl)pyrimidin-4-yl)-1H-pyrazole-4-carboxamide hydrochloride]
0.167	0.0601			Cc1c(C(=O)Nc2ccc([C@H]3CNCCO3)cc2)cnn1-c1ccc(C#N)cc1 [Example 35, (S)-1-(4-cyanophenyl)-5-methyl-N-(4-(morpholin-2-yl)phenyl)-1H-pyrazole-4-carboxamide hydrochloride]
0.0435	0.0088			Cc1cncc(-n2cc(C(=O)Nc3ccc([C@H]4CNCCO4)cc3)cn2)n1 [Example 39, (S)-1-(6-methylpyrazin-2-yl)-N-(4-(morpholin-2-yl)phenyl)-1H-pyrazole-4-carboxamide hydrochloride]
0.126	0.0119			Cc1cnc(-n2cc(C(=O)Nc3ccc([C@H]4CNCCO4)cc3)cn2)cn1 [Example 40, (S)-1-(5-methylpyrazin-2-yl)-N-(4-(morpholin-2-yl)phenyl)-1H-pyrazole-4-carboxamide hydrochloride]
0.0326	0.0199			N#Cc1cnc(-n2cc(C(=O)Nc3ccc([C@H]4CNCCO4)cc3)cn2)cn1 [Example 42, (S)-1-(5-cyanopyrazin-2-yl)-N-(4-(morpholin-2-yl)phenyl)-1H-pyrazole-4-carboxamide hydrochloride]
0.315	0.0554			Cc1ccnc(-n2cc(C(=O)Nc3ccc([C@H]4CNCCO4)cc3)cn2)n1 [Example 43, (S)-1-(4-methylpyrimidin-2-yl)-N-(4-(morpholin-2-yl)phenyl)-1H-pyrazole-4-carboxamide hydrochloride]
0.0059	0.0214			O=C(Nc1ccc([C@H]2CNCCO2)cc1)c1cnn(-c2cnc(C(F)(F)F)nc2)c1 [Example 45, (S)—N-(4-(morpholin-2-yl)phenyl)-1-(2-(trifluoromethyl)pyrimidin-5-yl)-1H-pyrazole-4-carboxamide hydrochloride]
0.0056	0.0031			O=C(Nc1ccc([C@H]2CNCCO2)cc1)c1cnn(-c2cnc(Cl)cn2)c1 [Example 46, (S)-1-(5-chloropyrazin-2-yl)-N-(4-(morpholin-2-yl)phenyl)-1H-pyrazole-4-carboxamide hydrochloride]
0.0345	0.0195			N#Cc1cncc(-n2cc(C(=O)Nc3ccc([C@H]4CNCCO4)cc3)cn2)n1 [Example 47, (S)-1-(6-cyanopyrazin-2-yl)-N-(4-(morpholin-2-yl)phenyl)-1H-pyrazole-4-carboxamide hydrochloride]
0.149	0.0531			O=C(Nc1ccc([C@H]2CNCCO2)cc1)c1cnn(-c2nccc(C(F)(F)F)n2)c1 [Example 48, (S)—N-(4-(morpholin-2-yl)phenyl)-1-(4-(trifluoromethyl)pyrimidin-2-yl)-1H-pyrazole-4-carboxamide hydrochloride]
0.0038	0.0077			O=C(Nc1ccc([C@H]2CNCCO2)cc1)c1cnn(-c2ccnc(C(F)(F)F)c2)c1 [Example 50, (S)—N-(4-(morpholin-2-yl)phenyl)-1-(2-(trifluoromethyl)pyridin-4-yl)-1H-pyrazole-4-carboxamide hydrochloride]
0.0451	0.0179			N#Cc1nccnc1-n1cc(C(=O)Nc2ccc([C@H]3CNCCO3)cc2)cn1 [Example 52, (S)-1-(3-cyanopyrazin-2-yl)-N-(4-(morpholin-2-yl)phenyl)-1H-pyrazole-4-carboxamide hydrochloride]
0.0052	0.0051			O=C(Nc1ccc([C@H]2CNCCO2)cc1)c1cnn(-c2cc(C3CC3)ncn2)c1 [Example 56, (S)-1-(6-cyclopropylpyrimidin-4-yl)-N-(4-(morpholin-2-yl)phenyl)-1H-pyrazole-4-carboxamide hydrochloride]
		~2.3	~0.7	CCN(C[C@H]1COC(N)=N1)c1ccccc1 [reference compound]

Compound	Ki (rat TAAR1) [µM]	Ki (mouse TAAR1) [µM]	Kd (rat TAAR1; read-out: dissociation constant (Kd) of the radioligand, rat TAAR1 membranes, saturation curve) [nM]	Kd (mouse TAAR1; read-out: dissociation constant (Kd) of the radioligand, mouse TAAR1 membranes, saturation curve) [nM]
O=C(Nc1ccc([C@H]2CNCCO2)cc1)c1cnn(-c2ccnc(Cl)n2)c1 [Example 36, (S)-1-(2-chloropyrimidin-4-yl)-N-(4-(morpholin-2-yl)phenyl)-1H-pyrazole-4-carboxamide hydrochloride]	0.0054	0.0086		
O=C(Nc1ccc([C@H]2CNCCO2)cc1)c1cnn(-c2ncc(C(F)(F)F)cn2)c1 [Example 37, (S)—N-(4-(morpholin-2-yl)phenyl)-1-(5-(trifluoromethyl)pyrimidin-2-yl)-1H-pyrazole-4-carboxamide hydrochloride]	0.0931	0.0615		
O=C(Nc1ccc([C@H]2CNCCO2)cc1)c1cnn(-c2cncc(C(F)(F)F)n2)c1 [Example 38, (S)—N-(4-(morpholin-2-yl)phenyl)-1-(6-(trifluoromethyl)pyrazin-2-yl)-1H-pyrazole-4-carboxamide hydrochloride]	0.0059	0.0075		
O=C(Nc1ccc([C@H]2CNCCO2)cc1)c1cnn(-c2nccnc2Cl)c1 [Example 41, (S)-1-(3-chloropyrazin-2-yl)-N-(4-(morpholin-2-yl)phenyl)-1H-pyrazole-4-carboxamide hydrochloride]	0.0814	0.0275		
O=C(Nc1ccc([C@H]2CNCCO2)cc1)c1cnn(-c2cc(C(F)(F)F)ncn2)c1 [Example 44, (S)—N-(4-(morpholin-2-yl)phenyl)-1-(6-(trifluoromethyl)pyrimidin-4-yl)-1H-pyrazole-4-carboxamide hydrochloride]	0.0041	0.0099		
N#Cc1ccc(-n2cc(C(=O)Nc3ccc([C@@H]4CNCCO4)cc3)cn2)c(F)c1 [Example 49, (R)-1-(4-cyano-2-fluorophenyl)-N-(4-(morpholin-2-yl)phenyl)-1H-pyrazole-4-carboxamide hydrochloride]	0.0033	0.0049		
O=C(Nc1ccc([C@H]2CNCCO2)cc1)c1cnn(-c2ccc(C(F)(F)F)nc2)c1 [Example 51, (S)—N-(4-(morpholin-2-yl)phenyl)-1-(6-(trifluoromethyl)pyridin-3-yl)-1H-pyrazole-4-carboxamide hydrochloride]	0.0048	0.0064		
O=C(Nc1ccc([C@H]2CNCCO2)cc1)c1cnn(-c2nc(C(F)(F)F)cs2)c1 [Example 57, (S)—N-(4-(morpholin-2-yl)phenyl)-1-(4-(trifluoromethyl)thiazol-2-yl)-1H-pyrazole-4-carboxamide hydrochloride]	0.0011	0.0019		
